Literature values in patent publication US20120071320A1, “LIQUID AGRICULTURAL FORMULATIONS OF IMPROVED STABILITY” (priority 2010, published 2012).

Settings: aqueous buffer solutions, both acidic and basic conditions

COC(=O)c1sccc1S(=O)(=O)NC(=O)Nc1nc(C)nc(OC)n1 [thifensulfuron methyl]
hydrolysis rate: relatively fast
